This is an account of results in article PMC8187479, “Sugar phosphate activation of the stress sensor eIF2B” (Nature Communications, 2021).

The target in the first test is T1, eIF2Bα (Homo sapiens, UniProt Q14232).
T1 construct: made in house; host or cells: E. coli BL21(DE3)
T1 sequence (Q14232 1-305): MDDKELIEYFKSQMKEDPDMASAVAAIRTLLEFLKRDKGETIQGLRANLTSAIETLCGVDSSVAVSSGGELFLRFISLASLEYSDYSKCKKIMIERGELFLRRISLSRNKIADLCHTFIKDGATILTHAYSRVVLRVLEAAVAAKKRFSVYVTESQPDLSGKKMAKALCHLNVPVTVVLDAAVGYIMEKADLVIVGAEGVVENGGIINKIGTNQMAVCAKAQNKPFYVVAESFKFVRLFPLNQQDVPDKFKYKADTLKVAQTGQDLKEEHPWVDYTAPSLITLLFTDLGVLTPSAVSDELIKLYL
Description: MIDAS (mass spectrometry integrated with equilibrium dialysis) metabolite binding screen. The conditions noted are these: MIDAS metabolite binding screen with eIF2Bα; sheet "eIF2Ba". The protocol:
Metabolites were combined into four defined screening pools. […] To the reverse side, 300 μL of 50 μM per metabolite pool was aliquoted and sealed (metabolite chamber). Loaded dialysis plates were placed in the dark at 4 °C on a rotating shaker (120 rpm) and incubated for 40 h. Post-dialysis, metabolites were isolated from each chamber by cold methanol extraction. Each sample was analyzed in technical triplicate by FIA-MS on a SCIEX X500R QTOF MS with interspersed blanks injections. The input metabolite pools were assayed at the beginning, middle, and end of each MS method batch for QC and normalization.
MIDAS FIA-MS spectra were processed in SCIEX OS 1.6 software to determine metabolite abundances by integrating the mean area under the curve for each extracted ion chromatogram. For each dialysis replicate, log2(fold change) for each metabolite was calculated as the difference between the log2 abundance in the protein chamber and metabolite chamber. For each technical triplicate, up to one outlier was removed using a z-score cutoff of five (<0.1% of observations). The corrected technical replicates were collapsed to one mean fold-change summary per protein-metabolite pair. To remove fold-change variation that was not specific to a given metabolite-protein pair, the first three principal components of the total screening dataset were removed on a per metabolite pool basis by subtracting the projection of the first 3 principal components, creating log2(corrected fold change). Protein-metabolite z-scores were determined by comparing the target protein-metabolite log2(corrected fold change) to a no-signal model for that metabolite using measures of the central tendency (median) and standard deviation (extrapolated from the 25–75% quantiles), which are robust to the signals in the tails of a metabolite’s fold-change distribution. Z-scores were false-discovery rate controlled using Storey’s q-value (qvalue, R) and protein-metabolite interactions with q-values < 0.1 were considered significant.
With `CC(=O)N[C@H]1[C@H]([C@H](O)[C@H](O)CO)O[C@](OP(=O)(O)OC[C@H]2O[C@@H](n3ccc(N)nc3=O)[C@H](O)[C@@H]2O)(C(=O)O)C[C@@H]1O`, the “log2(corrected fold change)” value was -0.01546.
The same measure, in the same setting: the result for `CC(=O)NC1C(OP(=O)(O)OP(=O)(O)OCC2OC(n3ccc(=O)[nH]c3=O)C(O)C2O)OC(CO)C(O)C1O` (stereo not drawn) reads -0.0409; that for `Nc1c(O)cccc1C(=O)CC(N)C(=O)O` (racemic) [3-Hydroxy-DL-kynurenine], 0.08675.
Still for that read-out and setting: to `NC(CP(=O)(O)O)C(=O)O` (racemic) [DL-2-Amino-3-phosphonopropionic acid] belongs -0.05707; to `O=C(O)C(O)c1ccc(O)c(O)c1` (racemic) [DL-3,4-Dihydroxymandelic acid], -0.05412.
On to `NC(CCS)C(=O)O` (racemic) [DL-Homocysteine], for which the “log2(corrected fold change)” value was -0.005857.
Same read-out and setting: to `O=C(O)CC(C(=O)O)C(O)C(=O)O` (racemic) [DL-Isocitric acid] belongs -0.01609.
Same read-out and setting: the result for `Cn1cnc(CCN)c1` [1-Methylhistamine] reads -0.03686.
Consider `C[n+]1cccc(C(N)=O)c1` [1-Methylnicotinamide], for which the “log2(corrected fold change)” value came to 0.02855.
Still for that read-out and setting: to `O=C(O)C(O)CO` (stereo not drawn) [2,3-Dihydroxypropanoic acid] belongs 0.03679.
The same measure, in the same setting: to `OCC(O)COC1OC(CO)C(O)C(O)C1O` (stereo not drawn) [2,3-Dihydroxypropyl hexopyranoside] belongs 0.03531.
Still for that read-out and setting: to `O=C(O)C(COP(=O)(O)O)OP(=O)(O)O` [2,3-Diphospho-D-glyceric acid] belongs 0.003153.
Consider `O=C(O)c1cc(O)ccc1O` [2,5-Dihydroxybenzoic acid], for which the “log2(corrected fold change)” value turned out to be 0.05271.
Still for that read-out and setting: to `O=C(O)C[C@H](O)[C@H](O)CO` [2-Deoxy-D-ribonic acid] belongs -0.009975; to `Nc1ncnc2c1ncn2C1CC(O)C(CO)O1` (stereo not drawn) [2-Deoxyadenosine], 0.4061; to `Nc1ccn([C@H]2C[C@H](O)[C@@H](COP(=O)(O)OP(=O)(O)O)O2)c(=O)n1` [2-Deoxycytidine 5-diphosphate], 0.01712.
On to `Nc1nc2c(ncn2[C@H]2C[C@H](O)[C@@H](COP(=O)(O)OP(=O)(O)O)O2)c(=O)[nH]1` [2-Deoxyguanosine 5-diphosphate], for which the “log2(corrected fold change)” value is recorded as -0.09804.
For `Nc1nc2c(ncn2[C@H]2C[C@H](O)[C@@H](COP(=O)(O)OP(=O)(O)OP(=O)(O)O)O2)c(=O)[nH]1` [2-Deoxyguanosine 5-triphosphate], the “log2(corrected fold change)” value was 0.05437.
The same measure, in the same setting: the result for `O=c1ccn([C@H]2C[C@H](O)[C@@H](CO)O2)c(=O)[nH]1` [2-Deoxyuridine] reads 0.04824; that for `CCC(C)C(O)C(=O)O` (stereo not drawn) [2-Hydroxy-3-methylpentanoic acid], -0.0302; that for `CC(C)CC(O)C(=O)O` (stereo not drawn) [2-Hydroxyisocaproic acid], -0.0302.
Still for that read-out and setting: the result for `O=C(O)CCCC(=O)C(=O)O` [2-Oxoadipic acid] reads -0.03769; that for `O=C(O)COP(=O)(O)O` [2-Phosphoglycolic acid], 0.0426.
Take `CC(C)=CC(=O)O` [3,3-Dimethylacrylic acid]: the “log2(corrected fold change)” value was 0.01899.
In the case of `NC1CCCNC1=O` (stereo not drawn) [3-Aminopiperidin-2-one], the “log2(corrected fold change)” value is listed as 0.003124.
For the compound `O=C(O)c1ccoc1` [3-Furoic acid], the “log2(corrected fold change)” value is given as -0.01812.
On the same count and under the same terms, to `CC(O)(CC(=O)O)CC(=O)O` [3-Hydroxy-3-methylglutaric acid] belongs 0.0406.
The same measure, in the same setting: the result for `CC(O)(CC(=O)O)CC(=O)SCCNC(=O)CCNC(=O)[C@H](O)C(C)(C)COP(=O)(O)OP(=O)(O)OC[C@H]1O[C@@H](n2cnc3c(N)ncnc32)[C@H](O)[C@@H]1OP(=O)(O)O` (stereo partly drawn) [3-Hydroxy-3-methylglutaryl coenzyme A] reads 0.00866; that for `Nc1c(O)cccc1C(=O)O` [3-Hydroxyanthranilic acid], -0.02136.

The test is the same for the next values; noted with them: MIDAS screen, sheet eIF2Ba; metabolites screened in pools 1-4; p-value and q-value given.
As for `OCC(O)c1ccc(O)c(O)c1` (racemic) [DL-3,4-Dihydroxyphenyl glycol], the “log2(corrected fold change)” value is -0.07769.
The same measure, in the same setting: the result for `CC(CNC(N)=O)C(=O)O` (racemic) [DL-3-Ureidoisobutyric acid] reads 0.1976; that for `COc1cc(C(O)C(=O)O)ccc1O` (racemic) [DL-4-Hydroxy-3-methoxymandelic acid], -0.08249; that for `NCC(O)CCC(N)C(=O)O` (racemic) [DL-5-Hydroxylysine], -0.09937.
Still for that read-out and setting: the result for `N[C@H](CCSSCC[C@@H](N)C(=O)O)C(=O)O` (racemic) [DL-Homocystine] reads 0.09463; that for `O=C(O)C(O)c1ccccc1` (racemic) [DL-Mandelic acid], 0.3212.
Same read-out and setting: the result for `NC(=O)CCC(N)C(=O)O` (stereo in doubt) [D-Glutamine] reads 0.1976; that for `NCCCN` [1,3-Diaminopropane], 0.2387; that for `Cn1cnc(C[C@H](N)C(=O)O)c1` [1-Methyl-L-histidine], -0.1945.
Consider `O=C(O)c1cccnc1C(=O)O` [2,3-Pyridinedicarboxylic acid], for which the “log2(corrected fold change)” value turned out to be 0.05596.
On the same count and under the same terms, the result for `O=Cc1cc(O)ccc1O` [2,5-Dihydroxybenzaldehyde] reads 0.1295.
On the same count and under the same terms, to `CCC(CO)C(=O)O` (stereo not drawn) [2-(Hydroxymethyl)butanoic acid] belongs 0.09429; to `COc1cccc(C(=O)O)c1N` [2-Amino-3-methoxybenzoic acid], -0.1539.
Still for that read-out and setting: the result for `NC(CCCC(=O)O)C(=O)O` (stereo not drawn) [2-Aminoadipic acid] reads -0.07731; that for `Nc1ccn([C@H]2C[C@H](O)[C@@H](COP(=O)(O)O)O2)c(=O)n1` [2-Deoxy-5-cytidylic acid], 0.04298.
`O=CC[C@H](O)[C@H](O)CO` [2-Deoxy-D-ribose]: the “log2(corrected fold change)” value is on record as -0.2249.
On the same count and under the same terms, to `Nc1ncnc2c1ncn2[C@H]1C[C@H](O)[C@@H](COP(=O)(O)OP(=O)(O)OP(=O)(O)O)O1` [2-Deoxyadenosine 5-triphosphate] belongs -0.07151; to `Nc1ccn([C@H]2C[C@H](O)[C@@H](CO)O2)c(=O)n1` [2-Deoxycytidine], 0.344.
As for `Nc1nc2c(ncn2[C@H]2C[C@H](O)[C@@H](CO)O2)c(=O)[nH]1` [2-Deoxyguanosine], the “log2(corrected fold change)” value is recorded as -0.1329.
Same read-out and setting: the result for `O=c1[nH]cnc2c1ncn2[C@H]1C[C@H](O)[C@@H](CO)O1` [2-Deoxyinosine] reads 0.06917; that for `O=P(O)(O)OC[C@H]1O[C@@H](O)C[C@@H]1O` [2-Deoxyribose-5-phosphate], 1.609; that for `O=c1ccn([C@H]2C[C@H](O)[C@@H](COP(=O)(O)O)O2)c(=O)[nH]1` [2-Deoxyuridine 5-monophosphate], 0.2736.
`CCC(O)C(=O)O` (stereo not drawn) [2-Hydroxybutanoic acid]: the “log2(corrected fold change)” value came to 0.07137.
Same read-out and setting: to `O=C(O)Cc1ccccc1O` [2-Hydroxyphenylacetic acid] belongs -0.07366.
The same measure, in the same setting: to `CCC(=O)C(=O)O` [2-Ketobutyric acid] belongs -0.05529; to `CC(CCC(=O)O)C(=O)O` (stereo not drawn) [2-Methylglutaric acid], -0.09665; to `N[C@@H](Cc1ccc(O)c(O)c1)C(=O)O` [3,4-Dihydroxy-L-phenylalanine], 0.5098.
Still for that read-out and setting: the result for `O=C(O)Cc1ccc(O)c(O)c1` [3,4-Dihydroxyphenylacetic acid] reads 0.1411.
In the case of `N[C@@H](Cc1cc(I)c(O)c(I)c1)C(=O)O` [3,5-Diiodo-L-tyrosine], the “log2(corrected fold change)” value turned out to be 0.05791.
The same measure, in the same setting: to `CC(CN)C(=O)O` (stereo not drawn) [3-Aminoisobutyric acid] belongs -0.1018; to `CC(O)CC(=O)O` (stereo not drawn) [3-Hydroxybutyric acid], 0.07137.
